Series [1] is described as follows: Unbound brain-to-plasma concentration ratio in rat at iv dosed for 4 to 24 hrs by LC-MS/MS analysis. It is filed as ADME, organism-based. The conditions noted are these: time 4-24 hrs; for Kp uu: read-out: K(p,uu,brain).
The nature of series [2]: Volume of distribution at steady state in iv dosed dog. The following applies: in vivo, read-out: Vdss. Type of series: ADME, organism-based, Canis lupus familiaris.
Series [3] is described as follows: Unbound clearance in mouse at iv administration. Type of series: ADME, organism-based. The conditions noted are these: in vivo.
Series [4] in a line: Half life in mouse at iv administration. Type of series: ADME, organism-based. The following applies: in vivo.
Series [5] can be described thus: Oral bioavailability in dog. Type of series: ADME, organism-based, Canis lupus familiaris. The conditions noted are these: in vivo.
The nature of series [6]: AUCinfinity in rat at iv administration. Type of series: ADME, organism-based. The conditions noted are these: in vivo.
Series [7] can be described thus: Oral bioavailability in Cynomolgus monkey. It is filed as ADME, organism-based, Macaca fascicularis. The following applies: in vivo.
Series [8] can be described thus: Tmax in po dosed dog. Type of series: ADME, organism-based, Canis lupus familiaris. The conditions noted are these: in vivo.
Series [9] is described as follows: Unbound clearance in Cynomolgus monkey at iv administration. It is filed as ADME, organism-based, Macaca fascicularis. The following applies: in vivo.
Series [10] can be described thus: Oral bioavailability in mouse. It is filed as ADME, organism-based. The conditions noted are these: in vivo.
Series [11] in a line: Tmax in rat at po administration. It is filed as ADME, organism-based. The conditions noted are these: in vivo.
The nature of series [12]: Intrinsic clearance in human Hepatocyte. Type of series: ADME, cell-based. The conditions noted are these: hepatocytes, read-out: CLH.
A short description of series [13]: AUCinfinity in Cynomolgus monkey at iv administration. It is filed as ADME, organism-based, Macaca fascicularis. The conditions noted are these: in vivo.
The nature of series [14]: Half life in Cynomolgus monkey at iv administration. It is filed as ADME, organism-based, Macaca fascicularis. The following applies: in vivo.
Series [15] in a line: Half life in rat at iv administration. Type of series: ADME, organism-based. The conditions noted are these: in vivo.
Series [16] can be described thus: Clearance in Cynomolgus monkey at iv administration. Type of series: ADME, organism-based, Macaca fascicularis. The following applies: in vivo.
The nature of series [17]: Unbound clearance in rat at iv administration. The following applies: in vivo. Type of series: ADME, organism-based.
Series [18] can be described thus: Oral bioavailability in rat. It is filed as ADME, organism-based. The following applies: in vivo.
The nature of series [19]: Tmax in mouse at po administration. It is filed as ADME, organism-based. The conditions noted are these: in vivo.
Series [20] in a line: Volume of distribution at steady state in rat at iv administration. Type of series: ADME, organism-based. The conditions noted are these: in vivo, read-out: Vdss.
A short description of series [21]: AUCinfinity in iv dosed dog. The following applies: in vivo. It is filed as ADME, organism-based, Canis lupus familiaris.
Series [22] in a line: Half life in iv dosed dog. It is filed as ADME, organism-based, Canis lupus familiaris. The conditions noted are these: in vivo.
The nature of series [23]: Clearance in iv dosed dog. It is filed as ADME, organism-based, Canis lupus familiaris. The conditions noted are these: in vivo.
A short description of series [24]: Unbound clearance in iv dosed dog. It is filed as ADME, organism-based, Canis lupus familiaris. The following applies: in vivo.
Series [25] can be described thus: Volume of distribution at steady state in mouse at iv administration. The conditions noted are these: in vivo, read-out: Vdss. It is filed as ADME, organism-based.
Series [26] in a line: AUCinfinity in mouse at iv administration. Type of series: ADME, organism-based. The following applies: in vivo.
Series [27] can be described thus: Clearance in rat at iv administration. It is filed as ADME, organism-based. The following applies: in vivo.
A short description of series [28]: Volume of distribution at steady state in Cynomolgus monkey at iv administration. The conditions noted are these: in vivo, read-out: Vdss. Type of series: ADME, organism-based, Macaca fascicularis.
Series [29] is described as follows: Tmax in Cynomolgus monkey at po administration. It is filed as ADME, organism-based, Macaca fascicularis. The following applies: in vivo.
Series [30] is described as follows: Intrinsic clearance in human liver microsomes. It is filed as ADME, Microsome. The conditions noted are these: read-out: CLH. A general note: Microsomes from liver hold many membrane-bound enzymes, among them those of drug oxidation.
The nature of series [31]: Unbound clearance in rat plasma at iv dosed for 4 to 24 hrs by LC-MS/MS analysis. Type of series: ADME, organism-based. The following applies: in vivo, time 4-24 hrs.
Series [32] is described as follows: Clearance in rat plasma at iv dosed for 4 to 24 hrs by LC-MS/MS analysis. The following applies: time 4-24 hrs. It is filed as ADME, organism-based.

Regarding `Cc1cnc2c(NC(=O)c3cn4cc(C56COC(C)(C5)C6)nc4nc3OC(C)C)cnn2c1`, the “K(p,uu,brain)” value in [1] (iv) is 0.3.
With `CC(C)Oc1nc2nc(C34COC(C)(C3)C4)cn2cc1C(=O)Nc1cccn(C2CC2)c1=O`, the Vd in series [2] came out at 1.4 L/kg; in series [20], 2.9 L/kg; in series [25], 1.5 L/kg; in [28] it was 0.9 L/kg. The CL free in [3] worked out at 240 mL/min/kg; in series [9] it was 98 mL/min/kg; in series [17] it was 171 mL/min/kg; in series [24], 76 mL/min/kg. Besides, the half-life is 96 min in series [4], 48 min in [14], 150 min in series [15] and 84 min in series [22]. Moreover, the bioavailability in series [5] is 89%; in [7], 61%; in series [10] it was 92%; in [18], 128%. In addition, the AUC(0-inf) turned out to be 1040 ng·h/mL in series [6], 1130 ng·h/mL in [13], 1400 ng·h/mL in series [21] and 1020 ng·h/mL in series [26]. The Tmax was 36 min in series [8], 15 min in series [11], 15 min in [19] and 1.2 h in series [29]. Also, the CLint scaled was 5.1 mL/min/kg in series [12] and < 5 mL/min/kg in series [30]. In addition, the figures for the clearance in series [16], in [23] and in [27] were 15.1 mL/min/kg, 12.7 mL/min/kg and 14.2 mL/min/kg, respectively. For the same compound, the Kp uu in [1] was found to be 0.7.
In [31], `CC(C)Oc1nc2nc(C34CCC(C)(C3)OC4)cn2cc1C(=O)Nc1cccn([C@H]2C[C@H]2F)c1=O` (single isomer, unassigned) returned a CL free of 306 mL/min/kg. Besides, the clearance in series [32] was 12.7 mL/min/kg. Moreover, the Kp uu in series [1] worked out at 0.2.
Taken in the same sequence, the figures for `COC[C@@]12CC[C@@](c3cn4cc(C(=O)Nc5cccn(C6CC6)c5=O)c(OC(C)C)nc4n3)(CO1)C2` were 281 mL/min/kg, 17 mL/min/kg and 0.2.
Turning to `CC(C)Oc1nc2nc(C34COC(C)(C3)C4)cn2cc1C(=O)Nc1cccn([C@H]2C[C@H]2C)c1=O`, the Kp uu in series [1] came to 0.4.
In turn, `COCC12CC(c3cn4cc(C(=O)Nc5cccn(C6CC6)c5=O)c(OC(C)C)nc4n3)(CO1)C2` had a CL free in series [31] of 170 mL/min/kg. The clearance in [32] worked out at 20.8 mL/min/kg. Further, the Kp uu in series [1] amounted to 0.5.
Turning to `CC(C)Oc1nc2nc(C34COC(C)(C3)C4)cn2cc1C(=O)Nc1cccn([C@H]2C[C@H]2F)c1=O` (single isomer, unassigned), the Kp uu in series [1] came to 0.3.
In turn, `COC[C@@]12CC[C@@](c3cn4cc(C(=O)Nc5cccn([C@H]6C[C@H]6F)c5=O)c(OC(C)C)nc4n3)(CO1)C2` returned a CL free in [31] of 312 mL/min/kg. For the same compound, the clearance in series [32] was found to be 33 mL/min/kg. Further, in [1], the Kp uu was 0.1.
`CC(C)Oc1nc2nc([C@@]34CC[C@@](C)(C3)OC4)cn2cc1C(=O)Nc1cccn(C2CC2)c1=O` (single isomer, unassigned): in [31], the CL free was determined as 310 mL/min/kg. Besides, in [32], the clearance was 36 mL/min/kg. For the same compound, the Kp uu in [1] worked out at 0.3.
`CC(C)Oc1nc2nc(C34COC(C3)C4)cn2cc1C(=O)Nc1cccn(C2CC2)c1=O`: the CL free in series [31] amounted to 88 mL/min/kg. The clearance in [32] worked out at 8 mL/min/kg. Also, the Kp uu in series [1] stood at 0.4.
Taken in the same sequence, the figures for `CC(C)Oc1nc2nc(C34COC(CF)(C3)C4)cn2cc1C(=O)Nc1cccn(C2CC2)c1=O` were 51 mL/min/kg, 9.6 mL/min/kg and 0.2.

The half-life is the time in which the quantity being followed falls by half. For orientation: AUC(0-inf) means the area under the concentration-time curve extrapolated to infinity. What is called Tmax is the time at which the peak concentration occurs. For orientation: clearance means the volume of plasma or blood freed of the substance per unit of time.

The values above are taken from ChEMBL document CHEMBL5506029 (J Med Chem, 2024).
